Laboratory results: patent US4206215A, “Antimicrobial bis-[4-(substituted-amino)-1-pyridinium]alkanes” (Sterling Drug Inc., priority 1977, dated 1980)

How the values were obtained:
[1] = test system: K. pneum. 39645; experiment: In vitro antibacterial activity, MIC (modified Autotiter method); type: cell-based, Klebsiella pneumoniae; settings: Klebsiella pneumoniae, 20 h, 18-20 hours at 37° C.; read-out: MIC K. pneum. 39645
How it was run: (§1)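 Compounds are diluted serially by twofold steps in sterile water using the Autotiter, beginning with a 1,000 mcg./ml. solution; addition of inoculated double-strength semisynthetic medium with glucose yields final concentrations between 500 and 0.06 mcg./ml.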

[2] = test system: Herpes simplex type 2 virus; experiment: Virucidal activity in vitro (plaque inhibition test); type: cell-based; settings: 2 mg. of test compound on growth medium
Method: Virucidal activity of representative examples against Herpes simplex type 2 virus was determined in vitro employing a procedure similar to the plaque inhibition test for detection of specific inhibitors of DNA-containing viruses published by E. C. Herrmann, Jr., Proc. Soc. Exp. Biol. Med. 107, 142 (1961) wherein 2 mg. of the test compound was placed on the surface of the growth medium.

[3] = test system: E. coli AB1932-1; experiment: In vitro antibacterial activity, MIC (modified Autotiter method); type: cell-based, Escherichia coli; settings: Escherichia coli, AB19321, 20 h, 18-20 hours at 37° C.; read-out: MIC E. coli AB1932-1
How it was run: as §1

[4] = test system: E. coli Vogel; experiment: as above; type: cell-based, Escherichia coli; settings: Escherichia coli, 20 h, 18-20 hours at 37° C.; read-out: MIC E. coli Vogel
How it was run: as §1

[5] = test system: E. coli 100/B22; experiment: as above; type: cell-based, Escherichia coli; settings: Escherichia coli, 100/B22, 20 h, 18-20 hours at 37° C.; read-out: MIC E. coli 100/B22
How it was run: as §1

[6] = test system: S. Aureus Smith; experiment: as above; type: cell-based, Staphylococcus aureus; settings: Staphylococcus aureus, 20 h, 18-20 hours at 37° C.; read-out: MIC S. Aureus Smith
How it was run: as §1

[7] = test system: S. pyogen. C203; experiment: as above; type: cell-based, Streptococcus pyogenes; settings: Streptococcus pyogenes, 20 h, 18-20 hours at 37° C.; read-out: MIC S. pyogen. C203
How it was run: as §1

[8] = test system: Ps. aerug. MGH-2; experiment: as above; type: cell-based, Pseudomonas aeruginosa; settings: Pseudomonas aeruginosa, 20 h, 18-20 hours at 37° C.; read-out: MIC Ps. aerug. MGH-2
How it was run: as §1

[9] = test system: P. mirab. MGH-1; experiment: as above; type: cell-based, Proteus mirabilis; settings: Proteus mirabilis, 20 h, 18-20 hours at 37° C.; read-out: MIC P. mirab. MGH-1
How it was run: as §1

[10] = test system: C. albicans 10231; experiment: In vitro antifungal activity, MIC (modified Autotiter method); type: cell-based, Candida albicans; settings: Candida albicans, 10231, 20 h, 18-20 hours at 37° C.; read-out: MIC C. albicans 10231
How it was run: as §1

[11] = test system: C. albicans Wisc.; experiment: as above; type: cell-based, Candida albicans; settings: Candida albicans, 20 h, 18-20 hours at 37° C.; read-out: MIC C. albicans Wisc.
How it was run: as §1

[12] = test system: A. niger 16404; experiment: as above; type: cell-based, Aspergillus niger; settings: Aspergillus niger, 16404, 20 h, 18-20 hours at 37° C.; read-out: MIC A. niger 16404
How it was run: as §1

[13] = test system: T. menta. 9129; experiment: as above; type: cell-based, Trichophyton mentagrophytes; settings: Trichophyton mentagrophytes, 20 h, 18-20 hours at 37° C.; read-out: MIC T. menta. 9129
How it was run: as §1

## CCCCC(CC)CNc1cc[n+](CCCCC[n+]2ccc(NCC(CC)CCCC)cc2)cc1 (stereo not drawn) [Example 53, 1,5-bis-[4-(2-ethylhexylamino)-1-pyridinium]pentane dibromide]
[1]
  MIC: > 125 µg/mL
[2]
  Virucidal activity against Herpes simplex type 2 virus: active
[3]
  MIC: 7.8 µg/mL
[4]
  MIC: 15.6 µg/mL
[5]
  MIC: 15.6 µg/mL
[6]
  MIC: 0.49 µg/mL
[7]
  MIC: 0.625 µg/mL
[8]
  MIC: 125 µg/mL
[9]
  MIC: > 125 µg/mL
[10]
  MIC: 31.3 µg/mL
[11]
  MIC: 15.6 µg/mL
[12]
  MIC: 31.3 µg/mL
[13]
  MIC: 7.8 µg/mL

## CCCCC(CC)CNc1cc[n+](CCCCCC[n+]2ccc(NCC(CC)CCCC)cc2)cc1 (stereo not drawn) [Example 54, 1,6-bis-[4-(2-ethylhexylamino)-1-pyridinium]hexane dibromide]
[1]
  MIC: 125 µg/mL
[2]
  Virucidal activity against Herpes simplex type 2 virus: active
[3]
  MIC: 1.95 µg/mL
[4]
  MIC: 7.8 µg/mL
[5]
  MIC: 3.9 µg/mL
[6]
  MIC: 0.49 µg/mL
[7]
  MIC: 0.625 µg/mL
[8]
  MIC: > 250 µg/mL
[9]
  MIC: > 125 µg/mL
[10]
  MIC: 7.8 µg/mL
[11]
  MIC: 7.8 µg/mL
[12]
  MIC: 15.6 µg/mL
[13]
  MIC: 1.95 µg/mL

## c1c[n+](CCCCCC[n+]2ccc(NC3CCCCC3)cc2)ccc1NC1CCCCC1 [Example 36, 1,6-bis-[4-(cyclohexylamino)-1-pyridinium]hexane dibromide]
[1]
  MIC: > 125 µg/mL
[2]
  Virucidal activity against Herpes simplex type 2 virus: active
[3]
  MIC: 125 µg/mL
[4]
  MIC: > 125 µg/mL
[5]
  MIC: > 125 µg/mL
[6]
  MIC: 15.6 µg/mL
[7]
  MIC: 15.6 µg/mL
[8]
  MIC: > 125 µg/mL
[9]
  MIC: > 125 µg/mL
[10]
  MIC: 125 µg/mL
[11]
  MIC: 125 µg/mL
[12]
  MIC: 125 µg/mL
[13]
  MIC: 15.6 µg/mL

## CCCCCCNc1cc[n+](CCCCCC[n+]2ccc(NCCCCCC)cc2)cc1 [Example 17, 1,6-bis-[4-(hexylamino)-1-pyridinium]-hexane dibromide]
[1]
  MIC: 125 µg/mL
[2]
  Virucidal activity against Herpes simplex type 2 virus: active
[3]
  MIC: 7.8 µg/mL
[4]
  MIC: 31.3 µg/mL
[5]
  MIC: 0.78 µg/mL
[6]
  MIC: 0.49 µg/mL
[7]
  MIC: > 250 µg/mL
[8]
  MIC: > 125 µg/mL
[9]
  MIC: > 250 µg/mL
[10]
  MIC: 15.6 µg/mL
[11]
  MIC: 15.6 µg/mL
[12]
  MIC: 7.8 µg/mL

## CCCCCCNc1cc[n+](CCCCC[n+]2ccc(NCCCCCC)cc2)cc1 [Example 31, 1,5-bis-[4-(hexylamino)-1-pyridinium]pentane dibromide]
[1]
  MIC: > 125 µg/mL
[2]
  Virucidal activity against Herpes simplex type 2 virus: active
[3]
  MIC: 31.3 µg/mL
[4]
  MIC: 125 µg/mL
[5]
  MIC: 62.5 µg/mL
[6]
  MIC: 1.95 µg/mL
[7]
  MIC: 0.98 µg/mL
[8]
  MIC: > 125 µg/mL
[9]
  MIC: > 250 µg/mL
[10]
  MIC: 31.3 µg/mL
[11]
  MIC: 62.5 µg/mL
[12]
  MIC: 31.3 µg/mL
[13]
  MIC: 31.3 µg/mL

## c1c[n+](CCCCCCCCC[n+]2ccc(NC3CCCCC3)cc2)ccc1NC1CCCCC1 [Example 39, 1,9-bis-[4-(cyclohexylamino)-1-pyridinium]nonane dibromide]
[1]
  MIC: 125 µg/mL
[2]
  Virucidal activity against Herpes simplex type 2 virus: inactive
[3]
  MIC: 31.3 µg/mL
[4]
  MIC: 31.3 µg/mL
[5]
  MIC: 31.3 µg/mL
[6]
  MIC: 0.98 µg/mL
[7]
  MIC: 3.9 µg/mL
[8]
  MIC: 500 µg/mL
[9]
  MIC: > 500 µg/mL
[10]
  MIC: 15.6 µg/mL
[11]
  MIC: 15.6 µg/mL
[12]
  MIC: 7.8 µg/mL
[13]
  MIC: 3.9 µg/mL

## c1c[n+](CCCCC[n+]2ccc(NC3CCCCC3)cc2)ccc1NC1CCCCC1 [Example 35, 1,5-bis-[4-(cyclohexylamino)-1-pyridinium]pentane dibromide]
[1]
  MIC: > 500 µg/mL
[2]
  Virucidal activity against Herpes simplex type 2 virus: active
[3]
  MIC: > 500 µg/mL
[4]
  MIC: > 500 µg/mL
[5]
  MIC: > 500 µg/mL
[6]
  MIC: 125 µg/mL
[7]
  MIC: 15.6 µg/mL
[8]
  MIC: > 500 µg/mL
[9]
  MIC: > 500 µg/mL
[10]
  MIC: 500 µg/mL
[11]
  MIC: 500 µg/mL
[12]
  MIC: 500 µg/mL
[13]
  MIC: 125 µg/mL
